Measured values published in PMC12690573, “Playing with Structural Parameters in the Design of Ruthenium(II)–p‑Cymene Complexes as Potential Antibacterial Agents” (Inorganic Chemistry, 2025).
≈ marks a conversion by molar mass, not a printed value. Like-named read-outs stand apart in the source and are kept apart here.

Key:
[1] = Water–octanol partition coefficient, shake-flask method (Log P pH7.4); format: physicochemical; details: PBS pH 7.4 / n-octanol, 16 μM
Method: The study was performed by using the shake-flask method, obtaining the water–octanol partition coefficients of complexes in PBS buffer at pH = 7.4 (Log P pH7.4), as listed in Table .
The octanol–water distribution coefficients were determined at pH 7.4 using the shake-flask method. , Briefly, solutions of the tested compounds (16 μM) in phosphate buffer (pH 7.4) were mixed with n-octanol in flasks at three different PBS:n-octanol ratios (1:1, 0.5:1, 2:1). The mixtures were manually shaken to allow equilibration between the organic and aqueous phases. Subsequently, phase separation was achieved by centrifugation at 4000 rpm for 10 min. The concentrations of ruthenium compounds in both phases were then determined spectrophotometrically. The log P 7.4 values were calculated as the mean value of the log[Ru-pCy1–5]-oct/[Ru-pCy1–5]PBS/4 values obtained from the three different PBS:n-octanol ratio samples for each complex.

[2] = Aquation (Ru–Cl hydrolysis) followed by UV–vis in aqueous solution; format: physicochemical; details: neutral pH, 298 K; for k water (aquation rate constant) / t 1/2 (aquation half-life): 10 μM, pseudo-first-order model
Method: In view of the well-known lability of the Ru(II)–Cl bond in RACs and considering its relevance for their biological mechanism of action, the aquation process of all systems was investigated. This was performed according to literature methods spectrophotometrically, by registering the UV–vis spectra of freshly prepared aqueous solutions of complexes at neutral pH over different times, up to 12 h, at 298 K. Results for Ru-pCy1 are shown in Figure , while those for the other complexes are reported in Figures S27–S28 Supporting Information. […] The temporal evolution to the aquo-species is also further supported by comparison of spectra collected at increasing time frames and the absorption profile of the aquo species, registered by adding AgNO3 to the metal complex (Figure b). A similar behavior was also observed for the other compounds, confirming their capability to readily lose the chloride ligand. […] Hydrolysis was not observed during the stability experiments (Figure S26), likely being suppressed by the high NaCl concentration in the PBS buffer media (140 mM).
The aquation rate constants (k water) and the corresponding half-lives (t 1/2) were determined by the time-dependent absorbance changes at the MLCT maxima according to a pseudo-first-order kinetic model. The resulting values, reported in Table , range between 2.48 and 5.4 × 10^–4 s^–1.

[3] = pKa of coordinated water ligand by UV–vis pH titration; format: physicochemical; details: absorbance at 435 nm, Henderson–Hasselbalch fit, 298 K
Source text: Lastly, the tendency of the coordinated water ligand to undergo deprotonation was also considered. This has been investigated for the lead compound Ru-pCy1, by recording the UV–vis spectra of batchwise aqueous solutions of the complex at different pH values and monitoring the changes in the MLCT region (Figure S29).
(§1) The acid–base behavior of the coordinated water ligand to the metal scaffold was also considered. To this aim, the UV–vis spectra of batchwise aqueous solutions of the lead compound Ru-pCy1 at different pH at 298 K were registered, and the changes in the MLCT region were monitored. […] A slightly higher value (8.82 ± 0.08) was instead determined potentiometrically under mixed solvent conditions (H2O/EtOH 4:1 v/v, NaClO4 0.1 M, 298 K, ligand concentration 1 mM), required to ensure the full solubilization of the complex.

[4] = pKa of coordinated water ligand, potentiometric; format: physicochemical; details: H2O/EtOH 4:1 v/v, NaClO4 0.1 M, 298 K, 1 mM
Method: as §1

[5] = Stability in CH3CN/PBS solution by UV–vis over 72 h; format: physicochemical; details: 1 × 10^–5 M in CH3CN/PBS (CH3CN 1% v/v), room temperature
Method: To gain insights into the suitability of RACs for biological purposes, their stability in aqueous solution was investigated before studying their interactions with representative proteins (SOD, RNase A, and CytC) by ESI-MS analysis (vide infra). Measurements were performed under strictly controlled conditions (temperature, pH, and complex concentration), namely, at a concentration of 1 × 10^–5 M in CH3CN/PBS solution (CH3CN 1% v/v) at room temperature, over a total of 72 h. The resulting time-dependent absorption profiles are reported in Figure S26 (Supporting Information).
Spectrofluorimetric-grade solvents were used for the preparation of all solutions. The PBS solution (pH 7.4, KCl 2.7 mM, NaCl 140 mM, phosphate 10 mM) was prepared according to the standard procedure. RACs were dissolved in CH3CN and then diluted to reach a final concentration of 1 × 10^–5 M in CH3CN/buffer solution (CH3CN 1% v/v). A PerkinElmer Lambda 900 spectrophotometer was employed to record the UV–Visible absorption spectra using 10 mm path-length quartz cuvettes.

[6] = biological target: T1, Bovine Superoxide Dismutase (SOD) (Bos taurus, UniProt P00442); assay: ESI-MS protein interaction study with SOD; format: binding; details: 1:3 protein to ruthenium ratio, 24 h, 37 °C
T1 construct: purchased Merck
T1 sequence (P00442 whole entry): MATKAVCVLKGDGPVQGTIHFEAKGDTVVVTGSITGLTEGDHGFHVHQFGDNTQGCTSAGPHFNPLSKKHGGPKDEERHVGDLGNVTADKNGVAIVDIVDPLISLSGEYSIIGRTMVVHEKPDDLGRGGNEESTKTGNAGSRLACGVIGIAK
Method: (§2) Accordingly, ESI-MS spectra of RNase A, SOD, and CytC incubated for 24 h with a 3-fold molar excess of each of the five different ruthenium complexes were recorded. […] This could be exacerbated by the steric hindrance of L3.
(§3) Sample preparation: stock solutions of Bovine Superoxide Dismutase SOD) (Merck), Bovine Pancreatic Ribonuclease A (Merck), and Horse Heart Cytochrome c (Merck) 10^–3 M were prepared by dissolving the lyophilized protein in LC–MS-grade water. Stock solutions 10^–2 M RACs were prepared by dissolving the samples in acetonitrile. For the experiments, an aliquot of the stock solutions of the selected protein was mixed with aliquots of each ruthenium compounds at protein-to-metal ratio 1:3 and diluted with LC–MS-grade water to 100 μM final protein concentration. The mixtures were incubated at 37 °C up to 24 h. After the incubation time, the protein solutions were sampled and diluted to a final protein concentration of 500 nM using LC–MS-grade water and adding 0.1% v/v of formic acid just before the infusion in the mass spectrometer.
(§4) Instrumental parameters: the ESI mass spectra were acquired through direct infusion at 7 μL min^–1 flow rate in a TripleTOF 5600+ high-resolution mass spectrometer (Sciex, Framingham, MA, U.S.A.), equipped with a DuoSpray interface operating with an ESI probe.
SOD: positive polarity, IonSpray Voltage Floating 5500 V, Temperature 0, Ion source Gas 1 (GS1) 40 L/min; Ion source Gas 2 (GS2) 0; Curtain Gas (CUR) 15 L/min, Declustering Potential (DP) 200 V, Collision Energy (CE) 10 V, acquisition range 1500–3500 m/z.
(§5) For acquisition, Analyst TF software 1.7.1 (Sciex) was used, and deconvoluted spectra were obtained by using the Bio Tool Kit microapplication v.2.2 embedded in Peak-ViewTM software v.2.2 (Sciex).

[7] = biological target: T2, Bovine Pancreatic Ribonuclease A (Bos taurus, UniProt P61823); assay: ESI-MS protein interaction study with RNase A; format: binding; details: 1:3 protein to ruthenium ratio, 24 h, 37 °C
T2 construct: Bovine Pancreatic Ribonuclease A (Merck); purchased Merck
T2 sequence (P61823 27-150): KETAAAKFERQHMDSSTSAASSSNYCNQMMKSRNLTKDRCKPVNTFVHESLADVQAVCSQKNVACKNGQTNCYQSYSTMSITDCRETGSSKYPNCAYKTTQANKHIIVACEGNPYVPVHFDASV
Method: as §2, §3, §4
RNase: positive polarity, Ionspray Voltage Floating 5500 V, Temperature 0, Ion source Gas 1 (GS1) 40 L/min; Ion source Gas 2 (GS2) 0; Curtain Gas (CUR) 15 L/min, Declustering Potential (DP) 100 V, Collision Energy (CE) 10 V, acquisition range 1000–2600 m/z.
as §5

[8] = test system: B. subtilis 168; assay: Antibacterial susceptibility, broth microdilution (OD600); format: cell-based, Bacillus subtilis; details: for MIC: B. subtilis 168, MHB, 24 h; for Concentration inducing approximately 50% inhibition of bacterial growth / Antibacterial activity profile (in words): B. subtilis; for Concentration inducing approximately 50% inhibition of bacterial growth: normalized OD600, 24 h; for Antibacterial activity profile (in words): normalized OD600 vs concentration
Source text: (§6) The antibacterial properties of Ru-pCy1–5 were investigated against Burkholderia cenocepacia strains J2315 and K56-2, two well-characterized clinical isolates of this Gram-negative pathogen, as well as against Bacillus subtilis 168, which was used as a model for a Gram-positive bacterial strain.
(§7) The obtained results are presented as normalized OD600 values, reporting the ratio of bacterial growth relative to that of the control (untreated) cells. These are plotted in Figure as a function of the compound concentrations (μg/mL), providing a quantitative assessment of the dose-dependent effects on bacterial growth of the tested ruthenium complexes.
(§8) Antimicrobial susceptibility was assessed in the following strains: B. cenocepacia K56-2 and J2315 and B. subtilis 168. For each bacterial strain, three independent biological replicates were prepared by inoculating Mueller–Hinton Broth (MHB) into sterile culture tubes, followed by overnight incubation at 37 °C with shaking at 130 rpm. Cultures were diluted to a final OD600 of 0.05 per well in 96-well microplates (Sarstedt AG & Co.) and exposed to 10 serial 2-fold dilutions of the compounds, ranging from 256 μg/mL to 0.5 μg/mL. Each biological replicate included three technical replicates. Growth inhibition was assessed visually and quantified by measuring OD600 after 24 h for B. subtilis 168 and after 48 h for B. cenocepacia strains K56-2 and J2315 using a Tecan Infinite 200 PRO plate reader.

[9] = test system: B. cenocepacia J2315; assay: as above; format: cell-based, Burkholderia cenocepacia; details: for MIC: B. cenocepacia J2315, MHB, 48 h
Source text: as §6, §7, §8

[10] = test system: B. cenocepacia K56-2; assay: as above; format: cell-based, Burkholderia cenocepacia; details: B. cenocepacia K56-2, MHB, 48 h
Source text: as §6, §7, §8

[11] = biological target: T3, Horse Heart Cytochrome c (Equus caballus, UniProt P00004); assay: ESI-MS protein interaction study with CytC; format: binding; details: 1:3 protein to ruthenium ratio, 24 h, 37 °C
T3 construct: Horse Heart Cytochrome c (Merck); purchased Merck
T3 sequence (P00004 whole entry): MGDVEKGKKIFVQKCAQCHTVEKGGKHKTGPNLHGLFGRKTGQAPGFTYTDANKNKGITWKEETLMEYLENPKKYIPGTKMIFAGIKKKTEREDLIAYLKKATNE
Method: as §2, §3
Instrumental parameters: the ESI mass spectra were acquired through direct infusion at 7 μL min^–1 flow rate in a TripleTOF 5600+ high-resolution mass spectrometer (Sciex, Framingham, MA, U.S.A.), equipped with a DuoSpray interface operating with an ESI probe. […]

| Structure (SMILES) | Log P pH7.4 [1] | k water (aquation rate constant) [2] | t 1/2 (aquation half-life) [2] [min] | pK a of coordinated water ligand [3] | pK a of coordinated water ligand [4] | Stability in aqueous solution [5] | Adduct formation with SOD [6] | Adduct formation with RNase A [7] | MIC [8] [µg/mL] | Concentration inducing approximately 50% inhibition of bacterial growth [8] [µg/mL] | Antibacterial activity profile (in words) [8] | MIC [9] [µg/mL] | Concentration inducing approximately 50% inhibition of bacterial growth ([9]; B. cenocepacia J2315, normalized OD600, 48 h) [µg/mL] | MIC [10] [µg/mL] | Ru–Cl hydrolysis (spectral variation over time) ([2]; aqueous solution, up to 12 h) | Adduct formation with CytC [11] | MIC ([8]; Bacillus subtilis, read-out: MIC) [µg/mL] | MIC ([9]; Burkholderia cenocepacia, read-out: MIC) [µg/mL] | MIC ([10]; Burkholderia cenocepacia, K562, read-out: MIC) [µg/mL] |
| --- | --- | --- | --- | --- | --- | --- | --- | --- | --- | --- | --- | --- | --- | --- | --- | --- | --- | --- | --- |
| Cc1ccc(C(C)C)cc1.F[P-](F)(F)(F)(F)F.[Cl-].[Ru+2].c1ccc2cc3nc4c5cccnc5c5ncccc5c4nc3cc2c1 [Ru-pCy1] | 0.80 ± 0.30 | 2.5 ± 0.1 × 10^–4 s^–1 | 46.5 ± 2.0 | 8.3 ± 0.1 | 8.82 ± 0.08 | moderate tendency to precipitate at the longest time points | form stable adducts | form stable adducts | 128 | ~64 | notable inhibitory effect | 128 | ~32 | 256 |  |  |  |  |  |
| Cc1ccc(C(C)C)cc1.F[P-](F)(F)(F)(F)F.[Cl-].[Ru+2].c1ccc(-c2ccnc3c2ccc2c(-c4ccccc4)ccnc23)cc1 [Ru-pCy2] | 0.91 ± 0.30 | 4.5 ± 0.2 × 10^–4 s^–1 | 25.7 ± 1.2 |  |  |  | form stable adducts | form stable adducts | 256 | ~8 | notable inhibitory effect | 256 |  | > 256 |  |  |  |  |  |
| Cc1ccc(C(C)C)cc1.F[P-](F)(F)(F)(F)F.[Cl-].[Ru+2].c1ccc2nc(-c3ccc4ccccc4n3)ccc2c1 [Ru-pCy3] | 0.57 ± 0.19 |  |  |  |  |  | did not interact | did not interact | 256 |  | intermediate antibacterial characteristics | 256 |  | > 256 | did not show appreciable variations | did not interact |  |  |  |
| O=C(N[C@H](CO)[C@H](O)c1ccc([N+](=O)[O-])cc1)C(Cl)Cl [chloramphenicol, reference compound] |  |  |  |  |  |  |  |  |  |  |  |  |  |  |  |  | 16 (≈ 49.5 µM) | 32 (≈ 99 µM) | 64 (≈ 198 µM) |
